Measurements as given in US5866787A, “Transgenic plants co-expressing a functional human 2-5A system” (Cleveland Clinic Foundation, priority 1995, dated 1999).
Blank lines part the entries; values can stand above or below the molecule they belong to.

Experiments:
[1] = system: recombinant human RNase L; test: 2-5A dependent ribonuclease L assay, poly(U) cleavage; type: biochemical; conditions: about 30° C. for about 2 hr
Procedure: FIG. 25. Transgenic plants produce functional, human recombinant 2-5A synthetase. Extracts of plants containing cDNA to both human RNase L and 2-5A synthetase (lanes 8-11), of control plants that are transformed with vector alone (lanes 12-15), and of interferon treated human HeLa cells (lanes 16 and 17) are assayed for 2-5A synthetase activity. 2-5A synthetase activity in extracts of transgenic plants is determined by a functional assay for 2-5A. […] The total cell lysates are centrifuged at about 10,000×g for about 10 min at about 4° C., the supernatants are collected and the protein concentration is determined as described in Bradford, M. et al.: Anal. Biochem., 72:248 (1976). […] 2-5A is monitored by its ability to activate RNase L, which are expressed and isolated from insect cells, Dong, B. et al.: J. Biol. Chem., 269:14153 (1994), to cleave poly (U) to discrete products (arrows). […]
To determine if 2-5A synthetase is present in the transgenic tobacco plants, functional assays for the enzyme are performed. 2-5A synthetase activity in extracts of transgenic plants is determined by a functional assay for 2-5A. […] The total cell lysates are centrifuged at about 10,000×g for about 10 min at about 4° C., the supernatants are collected and the protein concentration is determined. […]

2-5A-dependent RNase [2] = conditions: cited from earlier work
2-5A-dependent RNase [3] = conditions: depending on the cell type; cited from earlier work
RNase L [4] = test: 2-5A uptake by cut leaves, 18S rRNA northern blot; type: cell-based, transgenic plant expressing human RNase L; conditions: 1 μM taken up by cut leaves for seven hours; not in control plant
Procedure: FIG. 30 illustrates that RNase L in cut leaves is activated to cleave rRNA by incubation in a solution containing 2-5A. A northern blot probed with ^32 P-labeled cDNA to […] rRNA is shown. The cut leaves are from a control plant (lanes 1 and 2) or from a plant transgenic for human RNase L cDNA (lanes 3 and 4). The presence or absence of 2-5A and the position of the 2-5A-mediated rRNA cleavage products are shown.
Leaves from control and transgenic plants are cut and allowed to take up 2-5A [1 μM of p3 (A2'p)3 A] through the petiole for about seven hours at room temperature under fluorescent light. Total RNA is prepared and used to prepare northern blots. THe RNA in the blots is hybridized to a ^32 P labeled human 18S rRNA cDNA probe (the cDNA is provided by Dr. John Thaden, Baltimore).
To monitor uptake of 2-5A, leaves are cut at the base of the petiole and then placed in a solution of ^32 P-labeled 2-5A probe for about three hours at room temperature under light. The petiole was cut further and autoradiograms were made from the lamina. Uptake and translocation of the 2-5A probe is readily apparent through veins to all parts of lamina (data now shown). Catalytic activity of RNase L in the intact leaves is determined after allowing unlabeled 2-5A, p3 A(2'p5'A)3 (1 μM), to be taken up by cut leaves for seven hours. […]

RNase L [5] = test: 2-5A injection into detached leaves, 18S rRNA northern blot; type: cell-based, transgenic tobacco; conditions: about 2.5 μM injected, about 3 hrs; not in control or synthetase-only plants
Procedure: FIG. 24. […] Leaves are injected with about 2.5 μM 2-5A, total RNA is extracted after 3 hr and probed with ^32 P-labeled 18S cDNA. Lanes 1-2, control plant, lanes 3 and 4, plant expressing only 2-5A synthetase (Syn); lane 5, plant expressing only RNase L (RL); lanes 6-7, plants expressing both 2-5A synthetase and RNase L (Syn+RL).
Functional expression of RNase L in transgenic tobacco plants is detected by 2-5A-induced breakdown of 18S ribosomal RNA (rRNA) in detached leaves that are injected with 2-5A. Transgenic leaves are injected with about 2.5 μM p3 A(2'p5'A)3 and are incubated for about 3 hrs before total RNA is prepared. […] In addition, plants expressing RNase L are believed to have specific 2-5A binding activity that is absent in control, non-transgenic plants.

32P-2-5A probe = test: 2-5A probe crosslinking to lysine to asparagine mutants, phosphorimager analysis; type: binding; conditions: uv crosslinking, phosphorimager analysis of dried gel

Molecule: pA(2'p5'A)3
- activation of RNase L to cleave poly(U) [1]: production of discrete poly (U) cleavage products

Molecule: Nc1ncnc2c1ncn2[C@@H]1O[C@H](COP(=O)(O)OP(=O)(O)OP(=O)(O)O)[C@@H](O)[C@H]1O [ATP]
- stimulatory effect on 2-5A-dependent RNase activity (2-5A-dependent RNase [2]): two-fold

Molecule: interferon
- enhancement of levels of 2-5A-dependent RNase (2-5A-dependent RNase [3]): two- to twenty-fold

- degradation of rRNA in plants expressing RNase L (RNase L [5]): degradation of rRNA
Molecule: p3 A(2'p5'A)3
- degradation of 18S rRNA in RNase L expressing plants (RNase L [4]): induce degradation of the 18S rRNA to discrete cleavage products

- 2-5A binding activity, % of clone ZB1 (32P-2-5A probe): 12.2%
B1: ZB1(Lys^240,274 →Asn): clone ZB1 double mutant, lysines 240 and 274 mutated to asparagine (protein, UniProt Q05921 1-735, looked up, variant K240N K274N)
2-5A-dependent ribonuclease: METPDYNTPQGGTPSAGSQRTVVEDDSSLIKAVQKGDVVRVQQLLEKGADANACEDTWGWTPLHNAVQAGRVDIVNLLLSHGADPHRRKKNGATPFIIAGIQGDVKLLEILLSCGADVNECDENGFTAFMEAAERGNAEALRFLFAKGANVNLRRQTTKDKRRLKQGGATALMSAAEKGHLEVLRILLNDMKAEVDARDNMGRNALIRTLLNWDCENVEEITSILIQHGADVNVRGERGNTPLIAAVERKHTGLVQMLLSREGINIDARDNEGNTALLIAVDKQLKEIVQLLLEKGADKCDDLVWIARRNHDYHLVKLLLPYVANPDTDPPAGDWSPHSSRWGTALKSLHSMTRPMIGKLKIFIHDDYKIAGTSEGAVYLGIYDNREVAVKVFRENSPRGCKEVSCLRDCGDHSNLVAFYGREDDKGCLYVCVSLCEWTLEEFLRLPREEPVENGEDKFAHSILLSIFEGVQKLHLHGYSHQDLQPQNILIDSKKAVRLADFDQSIRWMGESQMVRRDLEDLGRLVLYVVMKGEIPFETLKTQNDEVLLTMSPDEETKDLIHCLFSPGENVKNCLVDLLGHPFFWTWENRYRTLRNVGNESDIKVRKCKSDLLRLLQHQTLEPPRSFDQWTSKIDKNVMDEMNHFYEKRKKNPYQDTVGDLLKFIRNIGEHINEEKKRGMKEILGDPSRYFQETFPDLVIYIYKKLKETEYRKHFPQPPPRLSVPEAVGPGGIQS
